Legend:
ERAP2 = ERAP2 expression in PBMC of RRMS patients over the course of GA treatment (exon arrays, PCR); type: in vivo, human; conditions: baseline, 3, 12 and 24 months of treatment (FIG. 4)
Experimental: Relapsing-remitting multiple sclerosis patients were treated with GA. Whole blood was taken from patients at four time points including baseline (baseline, month 3, month 12 and month 24). Peripheral blood mononuclear cells (PBMCs) were cryopreserved and RNA was isolated for gene expression analysis (FIG. 3).
Gene expression analysis was performed using Affymetrix Human Exon 1.0 ST expression arrays. Preprocessing was performed with an integrated three-step approach: background correction, normalization […] implemented in the Affymetrix Expression Console. Batch effects normalization was performed with the removeBatchEffect function from limma R package.
PCR analysis was performed in order to validate the expression of ERAP2 in Responder populations as compared to Non-Responders and Healthy Controls.

RRMS subjects [1] = conditions: largest controlled study, cited from earlier work
RRMS subjects [2] = conditions: over 9 months of treatment, 20 mg group (17 lesions under placebo); cited from earlier work
[3] = daily standard dose of 20 mg; cited from earlier work

Glatiramer acetate [GA]
ERAP2 expression change by treatment (ERAP2): not modified | relapse rate reduced (RRMS subjects [1]; GA 20 mg vs placebo): 32% | relapse rate (RRMS subjects [1]; under GA 20 mg (1.98 under placebo)): 1.34 | median cumulative number of Gd-enhancing lesions (RRMS subjects [2]): 11 lesions | tolerability [3]: generally well tolerated

Source: patent US9617596B2, “Biomarkers predictive for clinical response for glatiramer acetate” (TEVA PHARMACEUTICAL INDUSTRIES, LTD., priority 2012, dated 2017)
